# US20210292400A1, “METHODS FOR TREATING, PREVENTING AND DETECTING THE PROGNOSIS OF COLORECTAL CANCER” (priority 2018, published 2021)
# “Also recorded” adds a separate entry of the source.
# How the values were obtained:
# HCT116 cells [1] = test: Tumor xenograft of siRNA-treated HCT116 cells in nude mice; type: in vivo; conditions: HCT116 cells treated with siRNA, injected subcutaneously and bilaterally; vs control siRNA; 7 days post injection
# Procedure: FIG. 1H are graphs and images of xenografted tumor growth in nude mice following subcutaneous and bilateral inoculation of HCT116 cells transfected with control siRNA (left side) or ANXA1-specific siRNA (right side). The tumor volumes were measured after 7 days post injection (left panel, n=4). For each mouse, the tumor resulting from ANXA1 siRNA-treated cells was normalized to that arising from control siRNA-treated cells which was designated to 100%. The line represents the average. *p<0.05 (unpaired t-test). Representative tumors are shown on the right panel top, tumors arising from control siRNA treated cells; bottom, tumors arising from ANXA1-specific siRNA treated cells.
# Four-week old nude mice were purchased from Taconic Biosciences (NY, USA). An inoculum of 1×10^7 HCT 116 cells treated with either control or ANXA1-specific siRNA were injected subcutaneously and bilaterally into the nude mice, with control cells injected on the left side and ANXA1-knockdown cells on the right side. On day 7-9 post-injection, the tumor length and width were measured using calipers and tumor volumes were calculated using the following formula: Volume=(width)^2×length/2.
# AA/C1/SB/10C (10C) cells = test: Cell proliferation assay, 10C cells; type: cell-based, human; conditions: cells transfected with siRNA; compared to untreated cells; no Fn
# Procedure: (§1) Full length ANXA1 was amplified by PCR using primers listed in Table 1 and cloned in to pcDNA™3.1 (+) Mammalian Expression Vector. Plasmid transfection was performed using lipofectamine 2000 (Invitrogen, CA) following the manufacturer instructions. Control siRNA, ANXA1-specific siRNA and CDH1-specific siRNA were purchased from Invitrogen (CA). The siRNA utilized in these experiments included: Negative control: Invitrogen Stealth RNAi siRNA negative control cat number 12935300; Annexin siRNA: Invitrogen stealth siRNA (cat # ANXA1HSS100502) sequence UAACCAUUAUGGCCUUAUGCAAGGC (SEQ ID NO: 1); and E-cadherin siRNA: Invitrogen stealth siRNA (cat # CDH1HSS101669) sequence UUAAUCUCCAGCCAGUUGGCAGUGU (SEQ ID NO: 2). Lipofectamine RNAi MAX (Invitrogen, CA) was used for the siRNA transfection following manufacturer instructions.
# (§2) Cells were seeded in 24 well plates at 5×10^4 cells per well. Cells were untreated or incubated with bacteria at an MOI of 1000:1. Cell numbers were counted at indicated time points using a hemocytometer as previously described (Rubinstein et al. 2013). Each experiment was performed in triplicate and repeated at least three times.
# [2] = system: F. nucleatum 12230 attachment and invasion to 10C cells; test: Cell culture attachment and invasion assay of F. nucleatum 12230 to 10C cells; type: cell-based, human; conditions: 10C transfected with siRNA
# Procedure: Fn attachment and invasion to the untreated SB cells were designated as 100%, respectively; all other values were expressed as relative to those obtained with untreated SB. Data are mean values±SEM. *p<0.05, ** p<0.01 and *** p<0.001 (one-way ANOVA).
# Data are mean values±SD. The experiment was performed in triplicates and repeated twice. *p<0.05 (student's t-test).
# The assay was performed as previously described (Han et al. 2000). Briefly, host cells were seeded in 24 well plates and grown until 80% confluency. Bacteria were added at an MOI 50:1 and incubated for 1 hour at 37° C. in 5% CO2. Following washes with PBS and lysis with water for 20 minutes, serial dilutions of the lysates were plated onto blood agar plates to enumerate the viable bacterial counts. For the invasion assay, bacteria were incubated with the host cells for 3 hours followed by treatment with 300 μg/ml gentamicin and 200 μg/ml metronidazole for 1 hour at 37° C. Following washes with PBS, the cells were lysed with water and intracellular bacterial counts were determined as described above. The levels of attachment and invasion were expressed as the percentage of bacteria recovered following cell lysis relative to the total number of bacteria initially added. Each experiment was performed in triplicate and repeated at least three times.
# AA/C1/SB (SB) cells = test: Cell proliferation assay, non-tumorigenic SB cells; type: cell-based, human; conditions: cells transfected with siRNA; compared to untreated cells; no Fn
# Procedure: as §1, §2
# β-catenin in DLD1 cells [3] = test: Flow cytometry of β-catenin expression after F. nucleatum incubation, DLD1 cells; type: cell-based, human; conditions: DLD1 cells transfected with siRNA, then Fn 12230 MOI approximately 20:1
# Procedure: (§3) FIG. 3G are graphs of the results of flow cytometry analysis of β-catenin expression in 10C, HCT 116, and DLD1 cells following transfection with control siRNA (clear bars) or ANXA1-specific siRNA (solid bars) and subsequent incubation with F. nucleatum 12230 at MOI of approximately 20:1 for indicated time periods. The geometric means of cells treated with control siRNA at time 0 was designated as 1. Data are mean values±SD. *** p<0.001. The experiment was performed in duplicates or triplicates and repeated 1-3 times. **p<0.01, ***p<0.001 (two-way ANOVA).
# (§4) Approximately a total of 2×10^5 cells were incubated with Fn or purified FadA in 35 mm dish at 37° C. for indicated time periods. After washing with PBS, the cells were incubated with enzyme-free cell dissociation buffer (Thermo Fisher Scientific) for 5 min at 37° C. followed by addition of 1 ml DMEM. The cells were collected and centrifuged at 500 g for 3 minutes. The cell pellet was fixed with 75% cold ethanol and kept at −20° C. The pellet was centrifuged again at 2500 g for 10 minutes and washed with phosphate citrate buffer (200 mM Na2HPO4, 100 mM citric acid, pH 7.4), followed by blocking with PBS containing 2% skim milk at room temperature for 1 hour. […] After washing the cells with PBS, the flow cytometric data were acquired by a BD LSR II flow cytometer and analyzed using Flow Jo software (Tree Star, San Carlos, Calif.).
# HT29 cells = test: Cell proliferation assay, HT29 cells; type: cell-based, human; conditions: cells transfected with siRNA; compared to untreated cells; no Fn
# Procedure: as §1, §2
# RKO cells = test: Cell proliferation assay, RKO cells; type: cell-based, human; conditions: cells transfected with siRNA; RKO expressed the least Annexin A1
# Procedure: as §1, §2
# DLD1 cells = test: Cell proliferation assay, DLD1 cells; type: cell-based, human; conditions: cells transfected with siRNA; compared to untreated cells; no Fn
# Procedure: as §1, §2
# β-catenin in DLD1 cells [4] = test: β-catenin nucleus translocation, DLD1 cells; type: cell-based, human; conditions: Annexin A1 knocked down by siRNA
# Procedure: (§5) An aliquot of 1×10^3-1×10^5 cells were seeded into Nunc Lab-Tek II Chamber Slide System (Thermo Fisher Scientific) in 400 μl and allowed to grow for 2-5 days till reaching desired confluency. Following washes with DMEM, the cells were incubated with CFSE-labeled Fn or Alexa Fluor™488-conjugated FadAc, mFadA, and BSA (300 μg/ml) for indicated time periods. Following washes of ten times with DMEM, the cells were fixed in PBS containing 4% paraformaldehyde at room temperature for 15 minutes, followed by neutralization in PBS containing 1% glycine at room temperature for 15 minutes. After blocking with PBS containing 2% skim milk and 0.3% Triton X-100 for 1 hour at 4° C., the cells were incubated overnight at 4° C. with goat anti-human E-cadherin polyclonal antibodies (1:400 dilution, R&D Systems, MN) and rabbit anti-AnnexinA1 polyclonal antibodies (1:400 dilution, Invitrogen) or rabbit anti-β-catenin polyclonal IgG (1:400 dilution, Invitrogen) in blocking solution. After washing three times with PBS containing 0.3% Triton X-100, the cells were incubated with Cy3-conjugated donkey anti-goat IgG (1:1000 dilution, Jackson ImmunoResearch, West Grove, Pa.) and Alexa Fluor®680-conjugated donkey anti-rabbit IgG (1:1000 dilution, Invitrogen), washed, and covered in mounting medium containing DAPI (Vector Laboratories, CA, USA). […]
# β-catenin in 10C cells [5] = test: Flow cytometry of β-catenin expression after F. nucleatum incubation, 10C cells; type: cell-based, human; conditions: 10C cells transfected with siRNA, then Fn 12230 MOI approximately 20:1
# Procedure: as §3, §4
# HCT116 cells [6] = test: Cell proliferation assay, HCT116 cells; type: cell-based, human; conditions: cells transfected with siRNA; compared to untreated cells; no Fn
# Procedure: as §1
# Annexin antibodies utilized in these experiments included: Annexin A1 (Thermo Fisher Scientific, cat #71-3400); Annexin A2 (Thermo Fisher Scientific, cat # PA5-27566); Annexin V (Thermo Fisher Scientific, cat # PA5-27872); Annexin A6 (Thermo Fisher Scientific, cat. #720161); and Annexin All (Thermo Fisher Scientific, cat # PA5-68093).
# Cells were seeded in 24 well plates at 5×10^4 cells per well. […] Cell numbers were counted at indicated time points using a hemocytometer as previously described (Rubinstein et al. 2013). […]
# SW480 cells = test: Cell proliferation assay, SW480 cells; type: cell-based, human; conditions: cells transfected with siRNA; compared to untreated cells; no Fn
# Procedure: as §1, §2
# [7] = system: β-catenin in HCT116 cells; test: Flow cytometry of β-catenin expression after F. nucleatum incubation, HCT116 cells; type: cell-based, human; conditions: HCT116 cells transfected with siRNA, then Fn 12230 MOI approximately 20:1
# Procedure: as §3, §4
# β-catenin in 10C cells [8] = test: Immuno-staining of β-catenin nuclear translocation, 10C cells; type: cell-based, human; conditions: 10C cells transfected with siRNA, then Fn 12230 MOI about 100:1 for 2 hours
# Procedure: The images were captured with confocal microscope at 800× magnification. −, no bacteria added. Note the increased expression of β-catenin and its nucleus translocation in response to Fn in control siRNA-treated cells, compared to ANXA1 siRNA-treated cells.
# as §5, with “solution.” for “solution. After washing three times with PBS containing 0.3% Triton X-100, the cells were incubated with Cy3-conjugated donkey anti-goat IgG (1:1000 dilution, Jackson ImmunoResearch, West Grove, Pa.) and Alexa Fluor®680-conjugated donkey anti-rabbit IgG (1:1000 dilution, Invitrogen), washed, and covered in mounting medium containing DAPI (Vector Laboratories, CA, USA).”
substance,measurement,setting,value
"ANXA1-specific siRNA: Invitrogen stealth siRNA cat # ANXA1HSS100502, sequence UAACCAUUAUGGCCUUAUGCAAGGC (SEQ ID NO: 1) (UAACCAUUAUGGCCUUAUGCAAGGC; commercial Invitrogen Stealth siRNA, chemistry not given here)",xenografted tumor growth (tumor volume),HCT116 cells [1],significantly attenuated tumor growth
same,growth of 10C cells,AA/C1/SB/10C (10C) cells,inhibited the growth
same,Fn binding (attachment) to 10C cells,"[2]; Fn 12230 MOI 50:1, 1 hour",effectively reduced
same,Fn invasion of 10C cells,"[2]; Fn 12230 MOI 50:1, 3 hours",effectively reduced
same,growth of non-tumorigenic SB cells,AA/C1/SB (SB) cells,without affecting
same,F. nucleatum-mediated activation of β-catenin expression,β-catenin in DLD1 cells [3],abolished
same,growth of HT29 cells,HT29 cells,inhibited the growth
same,growth of RKO cells,RKO cells,without affecting
same,growth of DLD1 cells,DLD1 cells,inhibited the growth
same,nucleus translocation of β-catenin,β-catenin in DLD1 cells [4],abolished
same,F. nucleatum-mediated activation of β-catenin expression,β-catenin in 10C cells [5],abolished
same,growth of HCT116 cells,HCT116 cells [6],inhibited the growth
same,growth of SW480 cells,SW480 cells,inhibited the growth
same,F. nucleatum-mediated activation of β-catenin expression,[7],abolished
same,nuclear translocation of β-catenin,β-catenin in 10C cells [8],abolished; also recorded: inhibited
